The target of experiment [1] is T1, PCSK9 (Homo sapiens, UniProt Q8NBP7). Kind of experiment: Fluorescence polarization competition binding assay (probe: compound of Example 57). To be noted: 2 μM PCSK9, 50 nM compound of Example 57 as probe, overnight incubation; read-out: FP IC. The gist of the method: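 Competition fluorescence-polarization binding: 2 μM PCSK9 with 50 nM fluorescent probe in 20 mM HEPES pH 7.5, 150 mM NaCl, 1 mM CaCl2, 0.005% P-20, incubated with test compound overnight in the dark. Anisotropy read; % inhibition relative to DMSO wells and probe-without-PCSK9 wells.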

The target in experiment [2] is T1, PCSK9. Kind of experiment: Differential scanning calorimetry (DSC) assay, direct binding / thermal stabilization of PCSK9. To be noted: Tm(with compound)−Tm(no compound); 2 μM PCSK9, 300 μM test compound. Summed up:
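Thermal stabilization of 2 μM PCSK9 with or without 300 μM compound in 25 mM HEPES pH 7.5, 150 mM NaCl, 1 mM CaCl2, 3.75% DMSO. Sample heated 20–80 °C at 200 °C/hr against buffer reference. Protein Tm derived from each thermogram.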
For orientation: Differential scanning calorimetry records heat flow against a reference as temperature is scanned.

The ΔTm is the change in melting temperature against a reference sample.

pIC50: −log10 of the molar value.

T1 sequence (Q8NBP7 153-692): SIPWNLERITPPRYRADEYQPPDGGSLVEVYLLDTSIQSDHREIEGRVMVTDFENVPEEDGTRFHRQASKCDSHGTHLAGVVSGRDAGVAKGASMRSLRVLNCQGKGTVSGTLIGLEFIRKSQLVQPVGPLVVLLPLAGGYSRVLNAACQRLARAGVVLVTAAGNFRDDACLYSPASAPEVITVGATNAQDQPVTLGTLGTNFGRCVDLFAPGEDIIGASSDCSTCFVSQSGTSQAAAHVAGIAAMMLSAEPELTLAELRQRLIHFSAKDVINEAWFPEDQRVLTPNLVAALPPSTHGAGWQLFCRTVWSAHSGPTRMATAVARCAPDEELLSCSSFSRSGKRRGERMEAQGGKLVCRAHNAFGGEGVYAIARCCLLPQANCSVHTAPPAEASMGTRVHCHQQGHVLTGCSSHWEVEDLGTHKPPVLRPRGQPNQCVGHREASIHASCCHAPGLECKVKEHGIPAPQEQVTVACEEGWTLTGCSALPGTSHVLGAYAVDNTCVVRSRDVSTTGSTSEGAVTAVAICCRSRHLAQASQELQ

For `C[C@]1(CC(=O)Nc2nccs2)NCCc2cc(OCCn3cc(C4(C(=O)O)CC4)nn3)c(Oc3ccc(C(=O)O)c(F)c3)cc21` [Example 48, (R)-4-((6-(2-(4-(1-carboxycyclopropyl)-1H-1,2,3-triazol-1-yl)ethoxy)-1-methyl-1-(2-oxo-2-(thiazol-2-ylamino)ethyl)-1,2,3,4-tetrahydroisoquinolin-7-yl)oxy)-2-fluorobenzoic acid], in experiment [1], the pIC50 is 6.17. Besides, the ΔTm at 300 µM in experiment [2] is 6.02 °C.
As for `C[C@]1(CC(=O)Nc2nccs2)NCCc2cc(OCC3CCCCO3)c(Oc3cccc(F)c3)cc21` (single isomer, unassigned) [Example 80, 2-((1R)-7-(3-fluorophenoxy)-1-methyl-6-(((R or S)-tetrahydro-2H-pyran-2-yl)methoxy)-1,2,3,4-tetrahydroisoquinolin-1-yl)-N-(thiazol-2-yl)acetamide], the pIC50 in experiment [1] is 6.26. Besides, the ΔTm at 300 µM in experiment [2] stood at 6.09 °C.
For `COc1ccc(-n2nc(-c3cn(CCOc4cc5c(cc4Oc4ccc(C(=O)O)c(F)c4)[C@@](C)(CC(=O)Nc4nccs4)NCC5)nn3)cc(C)c2=O)cc1` [Example 43, (R)-2-fluoro-4-((6-(2-(4-(1-(4-methoxyphenyl)-5-methyl-6-oxo-1,6-dihydropyridazin-3-yl)-1H-1,2,3-triazol-1-yl)ethoxy)-1-methyl-1-(2-oxo-2-(thiazol-2-ylamino)ethyl)-1,2,3,4-tetrahydroisoquinolin-7-yl)oxy)benzoic acid], in that order: 6.38 and 5.45 °C.
For `C[C@]1(CC(=O)Nc2nccs2)NCCc2cc(OCC3CCCO3)c(Oc3ccc(-c4c[nH]c5c(C(=O)O)cccc45)c(F)c3)cc21` (stereo partly drawn) [Example 20, 3-(2-fluoro-4-(((1R)-1-methyl-1-(2-oxo-2-(thiazol-2-ylamino)ethyl)-6-((tetrahydrofuran-2-yl)methoxy)-1,2,3,4-tetrahydroisoquinolin-7-yl)oxy)phenyl)-1H-indole-7-carboxylic acid], in that order: 6.72 and 8.56 °C.
`Cc1noc(COc2cc3c(cc2Oc2ccc(-c4ccc(C(=O)O)cc4)c(F)c2)[C@@](C)(CC(=O)Nc2nccs2)NCC3)n1` [Example 24, (R)-2′-fluoro-4′-((1-methyl-6-((3-methyl-1,2,4-oxadiazol-5-yl)methoxy)-1-(2-oxo-2-(thiazol-2-ylamino)ethyl)-1,2,3,4-tetrahydroisoquinolin-7-yl)oxy)-[1,1′-biphenyl]-4-carboxylic acid]: the pIC50 in experiment [1] was 6.58. Besides, the ΔTm at 300 µM in experiment [2] was determined as 7.2 °C.
`COc1cccc(NC(=O)C[C@@]2(C)NCCc3cc(OCC4CCCCO4)c(Oc4ccc(-c5ccc(C(=O)O)cc5)c(F)c4)cc32)c1` (stereo partly shown) [Example 85]: the pIC50 in experiment [1] is 6.77. In addition, the ΔTm at 300 µM in experiment [2] stood at 9.62 °C.
In the same order, the values of `COC(=O)c1cc(-c2cc3c(cc2OC)CCN[C@]3(C)CC(=O)Nc2nccs2)ccc1F` [Example 109, methyl (R)-2-fluoro-5-(6-methoxy-1-methyl-1-(2-oxo-2-(thiazol-2-ylamino)ethyl)-1,2,3,4-tetrahydroisoquinolin-7-yl)benzoate] are 6.18 and 6.02 °C.
`COc1cc2c(cc1Oc1ccc(C(=O)O)c(F)c1)[C@@](C)(CC(=O)Nc1nccs1)NCC2` [Example 4, (R)-2-fluoro-4-((6-methoxy-1-methyl-1-(2-oxo-2-(thiazol-2-ylamino)ethyl)-1,2,3,4-tetrahydroisoquinolin-7-yl)oxy)benzoic acid]: in experiment [1], the pIC50 is 6.31. Moreover, the ΔTm at 300 µM in experiment [2] is 7.06 °C.
Take `COc1cc2c3cc1Oc1ccc(C(=O)O)c(c1)OCCCCCCc1csc(n1)NC(=O)C[C@@]3(C)NCC2` [Example 1, (Z)-36-methoxy-31-methyl-5-oxo-31,32,33,34-tetrahydro-2,14-dioxa-6-aza-7(2,4)-thiazola-3(7,1)-isoquinolina-1(1,3)-benzenacyclotetradecaphane-14-carboxylic acid]: the pIC50 in experiment [1] was 5.44. Also, the ΔTm at 300 µM in experiment [2] worked out at 4.29 °C.
In the same order, the values of `COc1cc2c(cc1Oc1ccc3cnccc3c1)[C@@](C)(CC(=O)Nc1nccs1)NCC2` [Example 6, (R)-2-(7-(isoquinolin-6-yloxy)-6-methoxy-1-methyl-1,2,3,4-tetrahydroisoquinolin-1-yl)-N-(thiazol-2-yl)acetamide] are 6.19 and 5.78 °C.
In the same order, the values of `C[C@]1(CC(=O)Nc2nccs2)NCCc2cc(OCc3ccccn3)c(Oc3ccc(C(=O)O)c(F)c3)cc21` [Example 65, (R)-2-fluoro-4-((1-methyl-1-(2-oxo-2-(thiazol-2-ylamino)ethyl)-6-(pyridin-2-ylmethoxy)-1,2,3,4-tetrahydroisoquinolin-7-yl)oxy)benzoic acid] are 6.52 and 7.31 °C.
In the same order, the values of `COc1ccc(Oc2cc3c(cc2OC)CCN[C@]3(C)CC(=O)Nc2nccs2)cc1F` [Example 10, (R)-2-(7-(3-fluoro-4-methoxyphenoxy)-6-methoxy-1-methyl-1,2,3,4-tetrahydroisoquinolin-1-yl)-N-(thiazol-2-yl)acetamide] are 6.04 and 5.55 °C.
As for `C[C@]1(CC(=O)Nc2nccs2)NCCc2cc(OCC3CCCCO3)c(Oc3ccc(C(=O)Nc4n[nH]c5ncccc45)c(F)c3)cc21` (stereo partly drawn) [Example 78, 2-fluoro-4-(((1R)-1-methyl-1-(2-oxo-2-(thiazol-2-ylamino)ethyl)-6-((tetrahydro-2H-pyran-2-yl)methoxy)-1,2,3,4-tetrahydroisoquinolin-7-yl)oxy)-N-(1H-pyrazolo[3,4-b]pyridin-3-yl)benzamide], the pIC50 in experiment [1] was 6.22. The “DSC ΔTm” value in experiment [2] amounted to 6.67 °C.
For the molecule `COc1cc2c(cc1Oc1ccc(-c3ccc(CCC(=O)O)cc3)cc1)[C@@](C)(CC(=O)Nc1nccs1)NCC2` [Example 30, (R)-3-(4′-((6-methoxy-1-methyl-1-(2-oxo-2-(thiazol-2-ylamino)ethyl)-1,2,3,4-tetrahydroisoquinolin-7-yl)oxy)-[1,1′-biphenyl]-4-yl)propanoic acid], the pIC50 in experiment [1] is 6.35. The thermal shift (ΔTm) at 300 µM in experiment [2] stood at 5.48 °C.
For `COC(=O)c1cc(-c2ccc(Oc3cc4c(cc3OC)CCN[C@]4(C)CC(=O)Nc3nccs3)cn2)c[nH]1` [Example 17, methyl (R)-4-(5-((6-methoxy-1-methyl-1-(2-oxo-2-(thiazol-2-ylamino)ethyl)-1,2,3,4-tetrahydroisoquinolin-7-yl)oxy)pyridin-2-yl)-1H-pyrrole-2-carboxylate], in that order: 7.94 and 2.62 °C.
Regarding `CC(=O)NCc1cn(CCOc2cc3c(cc2Oc2ccc(C(=O)O)c(F)c2)[C@@](C)(CC(=O)Nc2nccs2)NCC3)nn1` [Example 46], in experiment [1], the pIC50 was 6.22. Besides, the ΔTm at 300 µM in experiment [2] came out at 6.48 °C.
As for `C[C@]1(CC(=O)Nc2nccs2)NCCc2cc(OCC3CCCCO3)c(Oc3cccc(F)c3)cc21` (stereo partly drawn) [Example 79, 2-((1R)-7-(3-fluorophenoxy)-1-methyl-6-((tetrahydro-2H-pyran-2-yl)methoxy)-1,2,3,4-tetrahydroisoquinolin-1-yl)-N-(thiazol-2-yl)acetamide], in experiment [1], the pIC50 is 6.08. The ΔTm at 300 µM in experiment [2] was 6.76 °C.

(Values after patent US11008313B2, “Substituted 1-methyl-1,2,3,4-tetrahydroisoquinoline molecules as PCSK9 allosteric binders” (Merck Sharp & Dohme Corp., priority 2016, dated 2021).)
